Legend:
Prothrombin [1] = molecular target: T1, Prothrombin (Homo sapiens, UniProt P00734); experiment: Inhibitory concentration against thrombin.
Serine protease 1 = molecular target: T2, Serine protease 1 (Bos taurus, UniProt P00760); experiment: Inhibitory concentration against trypsin.
T2 sequence (P00760 whole entry): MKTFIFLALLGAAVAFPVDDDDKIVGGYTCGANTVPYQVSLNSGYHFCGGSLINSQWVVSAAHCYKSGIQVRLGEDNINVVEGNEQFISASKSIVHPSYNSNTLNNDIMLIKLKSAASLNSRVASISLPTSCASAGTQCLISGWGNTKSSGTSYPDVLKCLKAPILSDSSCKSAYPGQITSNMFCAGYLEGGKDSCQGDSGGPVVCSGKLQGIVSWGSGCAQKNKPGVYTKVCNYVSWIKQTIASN

Prothrombin [2] = molecular target: T1, Prothrombin
Description: Inhibitory constant on rate against thrombin.

Coagulation factor X [3] = molecular target: T3, Coagulation factor X (Homo sapiens, UniProt P00742); experiment: Inhibitory concentration against Coagulation factor Xa
T3 sequence (P00742 41-179 limits assumed): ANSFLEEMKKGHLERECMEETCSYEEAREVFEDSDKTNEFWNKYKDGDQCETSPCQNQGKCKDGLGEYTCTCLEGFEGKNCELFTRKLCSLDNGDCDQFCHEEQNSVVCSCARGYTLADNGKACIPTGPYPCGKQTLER
T3 sequence (P00742 235-488 limits assumed): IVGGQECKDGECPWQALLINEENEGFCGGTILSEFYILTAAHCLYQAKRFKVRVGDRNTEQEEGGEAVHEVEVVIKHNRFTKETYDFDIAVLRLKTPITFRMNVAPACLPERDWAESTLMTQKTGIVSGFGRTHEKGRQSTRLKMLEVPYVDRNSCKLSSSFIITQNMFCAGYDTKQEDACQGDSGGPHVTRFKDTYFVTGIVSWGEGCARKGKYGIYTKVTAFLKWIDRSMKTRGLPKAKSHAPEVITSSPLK

Coagulation factor VII [4] = molecular target: T4, Coagulation factor VII (Homo sapiens, UniProt P08709); experiment: Inhibitory concentration against coagulation factor VIIa
T4 sequence (P08709 whole entry): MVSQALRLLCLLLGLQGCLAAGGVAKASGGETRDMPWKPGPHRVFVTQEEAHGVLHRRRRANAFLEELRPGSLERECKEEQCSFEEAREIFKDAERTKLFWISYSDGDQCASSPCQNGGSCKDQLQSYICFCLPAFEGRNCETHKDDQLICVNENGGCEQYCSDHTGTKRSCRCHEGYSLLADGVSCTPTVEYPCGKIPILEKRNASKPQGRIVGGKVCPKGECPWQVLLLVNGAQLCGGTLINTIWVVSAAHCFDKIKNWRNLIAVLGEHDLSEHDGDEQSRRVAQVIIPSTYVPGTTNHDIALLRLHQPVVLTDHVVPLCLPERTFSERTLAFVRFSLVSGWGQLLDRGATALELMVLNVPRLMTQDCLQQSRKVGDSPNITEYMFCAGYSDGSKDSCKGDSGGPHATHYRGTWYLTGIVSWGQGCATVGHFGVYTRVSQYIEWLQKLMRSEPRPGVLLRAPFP

Plasminogen [5] = molecular target: T5, Plasminogen (Rattus norvegicus, UniProt Q01177); experiment: Inhibitory concentration against plasmin
T5 sequence (Q01177 97-581 limits assumed): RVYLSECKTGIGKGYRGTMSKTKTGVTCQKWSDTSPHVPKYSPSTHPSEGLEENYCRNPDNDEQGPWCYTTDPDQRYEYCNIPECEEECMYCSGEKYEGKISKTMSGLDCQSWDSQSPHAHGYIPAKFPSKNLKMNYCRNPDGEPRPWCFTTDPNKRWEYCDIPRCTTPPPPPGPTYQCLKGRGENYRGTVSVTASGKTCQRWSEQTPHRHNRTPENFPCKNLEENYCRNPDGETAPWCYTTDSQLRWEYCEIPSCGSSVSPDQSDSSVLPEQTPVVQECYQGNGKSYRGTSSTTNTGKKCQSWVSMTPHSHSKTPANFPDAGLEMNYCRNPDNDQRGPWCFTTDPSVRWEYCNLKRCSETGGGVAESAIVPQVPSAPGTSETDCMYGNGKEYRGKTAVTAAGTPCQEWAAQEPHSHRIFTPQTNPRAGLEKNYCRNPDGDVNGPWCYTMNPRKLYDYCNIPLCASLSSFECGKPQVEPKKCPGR
T5 sequence (Q01177 582-812 limits assumed): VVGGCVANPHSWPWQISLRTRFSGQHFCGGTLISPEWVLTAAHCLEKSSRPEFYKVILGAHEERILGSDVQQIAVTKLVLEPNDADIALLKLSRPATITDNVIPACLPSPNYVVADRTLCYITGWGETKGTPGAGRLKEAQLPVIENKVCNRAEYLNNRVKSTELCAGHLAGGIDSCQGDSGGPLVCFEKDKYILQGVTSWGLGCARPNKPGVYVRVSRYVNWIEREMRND

[6] = molecular target: T6, Tissue-type plasminogen activator (Homo sapiens, UniProt P00750); experiment: Inhibitory concentration against Tissue type plasminogen activator
T6 sequence (P00750 whole entry): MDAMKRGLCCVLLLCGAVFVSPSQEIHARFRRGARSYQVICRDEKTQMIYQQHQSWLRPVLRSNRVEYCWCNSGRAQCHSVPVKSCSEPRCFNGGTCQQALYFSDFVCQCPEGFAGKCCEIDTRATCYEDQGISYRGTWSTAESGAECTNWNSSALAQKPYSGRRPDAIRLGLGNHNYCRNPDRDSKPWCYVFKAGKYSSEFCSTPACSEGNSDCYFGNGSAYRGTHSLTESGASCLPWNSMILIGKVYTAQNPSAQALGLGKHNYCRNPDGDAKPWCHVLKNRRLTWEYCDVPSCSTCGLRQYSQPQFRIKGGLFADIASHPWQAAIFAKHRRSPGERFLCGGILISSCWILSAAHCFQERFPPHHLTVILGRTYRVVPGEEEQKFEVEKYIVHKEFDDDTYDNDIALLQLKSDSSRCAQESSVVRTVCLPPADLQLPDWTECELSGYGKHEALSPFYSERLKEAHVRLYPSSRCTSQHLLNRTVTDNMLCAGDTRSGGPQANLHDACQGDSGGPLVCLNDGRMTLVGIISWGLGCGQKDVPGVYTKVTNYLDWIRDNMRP

[7] = molecular target: Urokinase-type plasminogen activator (Homo sapiens, UniProt P00749); experiment: Inhibitory concentration against Urokinase-type plasminogen activator
Plasminogen [8] = molecular target: T5, Plasminogen; experiment: Inhibition constant against plasmin
Coagulation factor X [9] = molecular target: T3, Coagulation factor X; experiment: Inhibition constant against Coagulation factor Xa
Coagulation factor VII [10] = molecular target: T4, Coagulation factor VII; experiment: Inhibition constant against coagulation factor VIIa
[11] = molecular target: T6, Tissue-type plasminogen activator; experiment: Compound was evaluated for the inhibition of Tissue type plasminogen activator (tissue plasminogen activator)

Compound COc1ccc(CCNC(=O)C(=O)[C@H](CCCNC(=N)N)NC(=O)[C@@H]2CCN3CC[C@@](N)(Cc4ccccc4)CN23)cc1 has a Ki (Prothrombin [1]) of 0.45 nM.
With N=C(N)NCCC[C@H](NC(=O)[C@@H]1CCN2CC[C@@](N)(Cc3ccccc3)CN12)C(=O)C(=O)NCCc1ccccc1 the Ki (Prothrombin [1]) was 0.071 nM, the Ki (Serine protease 1) was 0.027 nM and the k on (Prothrombin [2]) was 640000 M⁻¹ s⁻¹.
In the case of N=C(N)NCCC[C@H](NC(=O)[C@@H]1CCC2CC[C@@](N)(Cc3ccccc3)CN21)C(=O)c1nc2ccccc2s1 (stereo in doubt; form 1) [listing 1 of 2 here], the k on (Prothrombin [2]) is reported as > 1e+07 M⁻¹ s⁻¹.
Work on N=C(N)NCCC[C@@H](CCl)NC(=O)[C@@H]1CCN2CC[C@@](N)(Cc3ccccc3)CN12 yielded an IC50 (Coagulation factor X [3]) of 385 nM, an IC50 (Coagulation factor VII [4]) of 140 nM and an IC50 (Plasminogen [5]) of 978 nM. For the same compound, the IC50 (Prothrombin [1]) was 1.2 nM, the IC50 [6] was 632 nM and the IC50 [7] was 927 nM. It also gave a k on (Prothrombin [2]) of 2.4e+06 M⁻¹ s⁻¹.
Compound N=C(N)NCCC[C@H](NC(=O)[C@@H]1CCN2CC[C@@](N)(Cc3ccccc3)CN12)C(=O)C(=O)NCCc1ccc(Cl)cc1 has a Ki (Prothrombin [1]) of 0.31 nM and a k on (Prothrombin [2]) of 380000 M⁻¹ s⁻¹.
N=C(N)NCCC[C@H](NC(=O)[C@@H]1CCN2CC[C@@](N)(Cc3ccccc3)CN12)C(=O)C(=O)NCc1ccccc1 was tested, and the k on (Prothrombin [2]) was 880000 M⁻¹ s⁻¹.
In the case of COc1ccc(CCNC(=O)C(=O)[C@H](CCCN=C(N)N)NC(=O)[C@@H]2CCN3CC[C@@](N)(Cc4ccccc4)CN23)cc1, the k on (Prothrombin [2]) is reported as 250000 M⁻¹ s⁻¹.
N=C(N)NCCC[C@H](NC(=O)[C@@H]1CCC2CC[C@@](N)(Cc3ccccc3)CN21)C(=O)c1nc2ccccc2s1 (stereo in doubt; form 2) [listing 1 of 2 here] was tested, and the k on (Prothrombin [2]) was > 1e+07 M⁻¹ s⁻¹.
In the case of N=C(N)NCCC[C@H](NC(=O)[C@@H]1CCC2CC[C@@](N)(Cc3ccccc3)CN21)C(=O)c1nc2ccccc2s1 (stereo in doubt; form 1) [listing 2 of 2 here], the Ki (Prothrombin [1]) is reported as 10 nM.
With N=C(N)NCCC[C@H](NC(=O)[C@@H]1CCN2CC[C@@](N)(Cc3ccccc3)CN12)C(=O)c1nccs1 the Ki (Prothrombin [1]) was 2.4 nM and the k on (Prothrombin [2]) was > 1e+07 M⁻¹ s⁻¹.
Compound N=C(N)NCCC[C@H](NC(=O)[C@@H]1CCC2CC[C@@](N)(Cc3ccccc3)CN21)C(=O)c1nc2ccccc2s1 (stereo in doubt; form 2) [listing 2 of 2 here] has a Ki (Prothrombin [1]) of 0.85 nM, a Ki [6] of 93 nM and a Ki (Serine protease 1) of 0.23 nM. It also gave a Ki [7] of 335 nM, a Ki (Plasminogen [8]) of 251 nM and a Ki (Coagulation factor X [9]) of 19.3 nM. The Ki (Coagulation factor VII [10]) was 200 nM.
Compound NCCCC[C@H](NC(=O)[C@@H]1CCN2CC[C@@](N)(Cc3ccccc3)CN12)C(=O)C(=O)NCc1ccccc1 has a Ki (Prothrombin [1]) of 2000 nM.
NC(N)=NCCC[C@@H](CCl)NC(=O)[C@@H]1CCCN1C(=O)[C@H](N)Cc1ccccc1 was tested, and the IC50 (Coagulation factor X [3]) was 165 nM, the IC50 (Coagulation factor VII [4]) was 200 nM and the IC50 (Plasminogen [5]) was 699 nM. For the same compound, the IC50 (Prothrombin [1]) was 1.5 nM, the IC50 [11] was 106 nM and the IC50 [7] was 508 nM.
N=C(N)NCCC[C@H](NC(=O)[C@@H]1CCN2CC[C@@](N)(Cc3ccccc3)CN12)C(=O)c1nc2ccccc2s1 was tested, and the Ki [6] was 495 nM, the Ki (Serine protease 1) was 0.64 nM and the Ki [7] was 600 nM. For the same compound, the k on (Prothrombin [2]) was > 1e+07 M⁻¹ s⁻¹, the Ki (Plasminogen [8]) was 415 nM and the Ki (Coagulation factor X [9]) was 270 nM. It also gave a Ki (Coagulation factor VII [10]) of 270 nM.

From ChEMBL document CHEMBL1132633, “Secondary structure peptide mimetics: design, synthesis, and evaluation of beta-strand mimetic thrombin inhibitors” (J Med Chem, 1999)
